Measurements: patent publication US9334523B2, “Substrates and methods for staining live stem cells” (LIFE TECHNOLOGIES CORPORATION, priority 2011, dated 2016)
“Also recorded” adds a separate entry of the source. Where two headings read alike, the source gives them in different places.

Tests used:
[1] = tested on: H9 ESCs; assay: Live staining of H9 ESCs cultured on MEF feeders with alkaline phosphatase substrates; format: cell-based, human; conditions: for concentration range of fluorescence: FIG. 1; for concentration at which robust staining of ESC colonies was achieved: FIG. 2
Method: (§1) Here, two test alkaline phosphate substrates, Fluorescein diphosphate-AM ester (FDP-AM) and DDAOP-AM ester were tested for live staining on pluripotent stem cells like H9 ESCs cultured on MEF (mouse embryonic fibroblast) feeder cells. H9 ESCs and other stem cells expressed high alkaline phosphatase. Negative control cells were MEFs and human dermal fibroblasts which express far lower levels of alkaline phosphatase.
(§2) A 10 mM substrate master stock solution (1000×) of fluorescein diphosphate-AM ester (FDP-AM) or DDAOP-AM was prepared (for FDP-AM for e.g., by adding 512.5 μL of tissue culture grade DMSO to 4 mg of the compound (MW: 780.52)).
(§3) Then, 100 μL of 10 mM FDP-AM or DDAOP-AM solution was diluted into 900 μL of DMEM to make 1 mM working stock; or 10 μM working stock was prepared by diluting 10 μl to 10 ml with 100 mM Tris-HCl pH 8.2 or DMEM basal media; or 1 μM working stock was prepared by diluting 10 μL of 1 mM working stock in 10 ml of DMEM, which was used.
(§4) The AP (alkaline phosphatase) live compound with concentrations ranging: >1 μM, 5 μM, 10 μM, 50 μM, 100 μM, and 200 μM, was made by adding 1, 5, 10, 50, 100 and 200 μL of 1 mM FDP-AM or DDAOP-AM working stock. Similarly, the AP live compounds with concentrations ranging: >20 nM, 50 nM, 100 nM, 250 nM, 500 nM, and 800 nM, was made by adding 2, 5, […], 25, 50 and 80 μL of 1 μM FDP-AM working stock. The first dilution was added to an empty plate (no seeded cells) containing DMEM. The final concentration of the substrates, on the cells, were as follows: 50-200 nM for FDP-AM, and 50-200 μM for DDAOP-AM.
(§5) Incubation times were then determined, beginning with 90 seconds. Where no FITC expression was detected, expression was continued for up to 30 minutes. Levamisole was added to the wash buffer to quench the reaction. This step is whoever optional and not necessary. The samples were rinsed with DMEM and visualized.

[2] = tested on: MEF (mouse embryonic fibroblast) feeder cells; assay: Background staining in negative control cells (MEFs, fibroblasts); format: cell-based
Method: as §1, §2, §3, §4, §5

[3] = tested on: mouse ESCs; assay: Live staining of mouse ESCs on MEF feeders; format: cell-based; conditions: 200 nM, 30 min
Text: Alkaline phosphatase is not specific just for human ESCs but also for murine ESCs. […] The fluorescent signal is robust and visible at lower 5× magnification [FIG. 7].

[4] = tested on: differentiating osteoblasts versus AdSCs; assay: Staining of adipose derived mesenchymal stem cells and derived osteoblasts; format: cell-based; conditions: FIG. 8
Text: Alkaline phosphatase is also expressed at high levels in differentiating osteoblasts and mature osteocytes.

Row | Compound | staining of ESC colonies [1] | time for substrate to diffuse out of the ESC [1] | viability of cells after the substrate diffuses out [1] | proliferation of stained cells after removal of the substrate ([1]; 100-200 nM, 30 minutes) | concentration range of fluorescence [1] | concentration at which robust staining of ESC colonies was achieved [1] [µM] | cell-specific marker expression of stained cells ([1]; after staining and removal of the substrate) | re-staining with a second exposure the following day ([1]; after washing, culturing overnight, 30 min exposure) | removal of fluorescent stain from stained cells ([1]; media with substrate replaced with fresh ESC culture media) | background staining in negative control MEFs [2] | background in MEF feeder cells of mESC culture [3] | staining of mESC colonies [3] | specificity of staining of osteoblasts versus parent AdSC/MSC [4] | morphology of stained ESCs [1] | background staining in negative control MEFs ([2]; listed as DDAO-AM) | effect on viability or morphology of stained cells [1]
1 | CC(=O)OCOP(=O)(OCOC(C)=O)Oc1ccc2c(c1)Oc1cc(OP(=O)(OCOC(C)=O)OCOC(C)=O)ccc1C21OC(=O)c2ccccc21 [FDP-AM, Fluorescein diphosphate-AM ester] | successful staining; also recorded: robust staining | within two hours | viable overnight | continue to proliferate even after removal of the substrate | nanomolecular range | 0.2 | retain their cell-specific marker expression; also recorded: retained their marker expression | successfully re-stained | completely removed | minimal background | minimal background staining; also recorded: little or no background | specially stains mESC; also recorded: robust staining | specific staining of differentiating osteoblasts with minimal background in its parental undifferentiated MSC; also recorded: specific staining for the differentiated phenotype (osteoblast) but not in AdSCs | – | – | –
2 | CC(=O)OCOP(=O)(OCOC(C)=O)Oc1ccc2c(c1)C(C)(C)C1=C(Cl)C(=O)C(Cl)=CC1=N2 [DDAOP-AM, DDAO phosphate-AM ester] | – | – | – | – | micomolar range | 200 | – | – | – | high background expression | – | – | failed to show specific staining; also recorded: does not show specific staining | altered morphology | higher background in negative control cells | –
3 | O=C1OC2(c3ccc(O)cc3Oc3cc(O)ccc32)c2ccccc21 [fluorescein] | – | – | – | – | – | – | – | – | – | – | – | – | – | – | – | does not affect the viability or morphology
